According to ChEMBL document CHEMBL5614409, “Discovery of potent HIV-1 NNRTIs by CuAAC click-chemistry-based miniaturized synthesis, rapid screening and structure optimization” (Eur J Med Chem, 2024):
In brackets after ≈: the same amount, converted by molar mass.

Experiments:
[1] = Aqueous solubility of compound at pH 7.4; conditions: buffer
[2] = Aqueous solubility of compound at pH 7; conditions: buffer
[3] = tested on: Human immunodeficiency virus 1; assay: Antiviral activity against HIV1 IIIB harboring K103 N mutant infected in MT4 cells assessed as reduction in virus induced cytopathic effect incubated for 5 days by MTT method; assay type: functional, organism-based; conditions: Human immunodeficiency virus 1, IIIB, MT4, 120 h
[4] = Cytotoxicity against human MT4 cells assessed as reduction in cell viability incubated for 5 days by MTT method; assay type: toxicity, cell-based; conditions: time 5 day
[5] = target: Human immunodeficiency virus type 1 reverse transcriptase (Human immunodeficiency virus 1, UniProt Q72547); assay: Inhibition of HIV-1 reverse transcriptase assessed as reduction in biotin-dUTP incorporation incubated for 2 hrs in presence of template and viral nucleotides by ELISA
[6] = tested on: Human immunodeficiency virus 1; assay: Antiviral activity against HIV1 IIIB harboring RES056 mutant infected in MT4 cells assessed as reduction in virus induced cytopathic effect incubated for 5 days by MTT method; assay type: functional, organism-based; conditions: Human immunodeficiency virus 1, IIIB, MT4, 120 h
[7] = target: Human immunodeficiency virus type 1 reverse transcriptase (Human immunodeficiency virus 1) (UniProt Q72547); assay: Inhibition of HIV-1 reverse transcriptase incubated for 2 hrs in presence of template and viral nucleotides by ELISA relative to control; set-up: concentration or dose not given beside the values; conditions: concentration not given here
[8] = tested on: Human immunodeficiency virus 1; assay: Antiviral activity against HIV1 IIIB harboring Y188L mutant infected in MT4 cells assessed as reduction in virus induced cytopathic effect incubated for 5 days by MTT method; assay type: functional, organism-based; conditions: Human immunodeficiency virus 1, IIIB, MT4, 120 h
[9] = tested on: Human immunodeficiency virus 1; assay: Antiviral activity against HIV1 IIIB harboring Y181C mutant infected in MT4 cells assessed as reduction in virus induced cytopathic effect incubated for 5 days by MTT method; assay type: functional, organism-based; conditions: Human immunodeficiency virus 1, IIIB, MT4, 120 h
[10] = Selectivity index, ratio of CC50 for human MT4 cells to EC50 for antiviral activity against HIV1 IIIB infected in MT4 cells; assay type: toxicity, cell-based; conditions: read-out: Ratio CC50/EC50
[11] = tested on: Human immunodeficiency virus 1; assay: Antiviral activity against HIV1 IIIB infected in MT4 cells assessed as reduction in virus induced cytopathic effect incubated for 5 days by MTT method; assay type: functional, organism-based; conditions: Human immunodeficiency virus 1, IIIB, MT4, 120 h
[12] = tested on: Human immunodeficiency virus 1; assay: Antiviral activity against HIV1 IIIB harboring L100I mutant infected in MT4 cells assessed as reduction in virus induced cytopathic effect incubated for 5 days by MTT method; assay type: functional, organism-based; conditions: Human immunodeficiency virus 1, IIIB, MT4, 120 h
[13] = tested on: Human immunodeficiency virus 1; assay: Antiviral activity against HIV1 IIIB harboring F227L/V106A double mutant infected in MT4 cells assessed as reduction in virus induced cytopathic effect incubated for 5 days by MTT method; assay type: functional, organism-based; conditions: Human immunodeficiency virus 1, IIIB, MT4, 120 h
[14] = tested on: Human immunodeficiency virus 1; assay: Antiviral activity against HIV1 IIIB harboring E138K mutant infected in MT4 cells assessed as reduction in virus induced cytopathic effect incubated for 5 days by MTT method; assay type: functional, organism-based; conditions: Human immunodeficiency virus 1, IIIB, MT4, 120 h
[15] = tested on: Human immunodeficiency virus 1; assay: Antiviral activity against HIV1 IIIB harboring Y188L mutant infected in MT4 cells assessed as fold increase in reduction of virus induced cytopathic effect incubated for 5 days by MTT method relative to A6N36; assay type: functional; conditions: time 5 day
[16] = Aqueous solubility of compound at pH 7.4 incubated for 24 hrs under shaking condition by HPLC method; assay type: physicochemical; conditions: buffer
[17] = Aqueous solubility of compound at pH 7 incubated for 24 hrs under shaking condition by HPLC method; assay type: physicochemical; conditions: buffer
[18] = Aqueous solubility of compound at pH 2 incubated for 24 hrs under shaking condition by HPLC method; assay type: physicochemical; conditions: buffer
[19] = tested on: Human immunodeficiency virus 1; assay: Antiviral activity against HIV1 IIIB harboring F227L/V106A double mutant infected in MT4 cells assessed as fold increase in reduction of virus induced cytopathic effect incubated for 5 days by MTT method relative to A6N36; assay type: functional; conditions: time 5 day
[20] = tested on: Human immunodeficiency virus 1; assay: Antiviral activity against HIV1 IIIB harboring RES056 mutant infected in MT4 cells assessed as fold increase in reduction of virus induced cytopathic effect incubated for 5 days by MTT method relative to A6N36; assay type: functional; conditions: time 5 day

SMILES | solubility [1] | solubility [2] | EC50 [3] | CC50 at 120 h [4] | IC50 [5] | EC50 [6] | inhibition [7] | EC50 [8] | EC50 [9] | selectivity ratio [10] | EC50 [11] | EC50 [12] | EC50 [13] | EC50 [14] | fold change (FC) [15] | solubility thermodynamic at 24 h [16] | solubility thermodynamic at 24 h [17] | solubility thermodynamic at 24 h [18] | fold change (FC) [19] | fold change (FC) [20]
Cc1cc(/C=C/C#N)cc(C)c1Nc1ccnc(Nc2ccc(C#N)cc2)n1 [RILPIVIRINE] | < 1 µg/mL | < 1 µg/mL | – | – | – | – | – | – | – | – | – | – | – | – | – | – | – | – | – | –
Cc1cc(C#N)cc(C)c1Oc1ccnc(NC2CCN(Cc3cn(CC(=O)NC4CC4)nn3)CC2)n1 | – | – | 0.019 µM | 31.3 µM | 0.062 µM | 2.63 µM | 93.4% | 0.399 µM | 0.03 µM | 12500 | 0.003 µM | 0.15 µM | 3.27 µM | 0.028 µM | – | – | – | – | – | –
Cc1cc(C#N)cc(C)c1Oc1ccnc(NC2CCN(Cc3cn(Cc4ccc(C(N)=O)cc4)nn3)CC2)n1 | – | – | 0.007 µM | 7.69 µM | 0.055 µM | > 7.69 µM | 94.1% | 0.097 µM | 0.011 µM | – | 0.002 µM | 0.05 µM | 1.04 µM | 0.014 µM | – | – | – | – | – | –
COC(=O)Cn1cc(CN2CCC(Nc3nccc(Oc4c(C)cc(/C=C/C#N)cc4C)n3)CC2)nn1 | – | – | – | 26.2 µM | 0.052 µM | – | 91.7% | – | – | 732 | 0.036 µM | – | – | – | – | – | – | – | – | –
Cc1cc(/C=C/C#N)cc(C)c1Oc1ccnc(NC2CCN(Cc3cn(Cc4ccc(B(O)O)cc4)nn3)CC2)n1 | – | – | 0.004 µM | 4.62 µM | 0.096 µM | 0.133 µM | 92.2% | 0.078 µM | 0.011 µM | 825 | 0.006 µM | 0.009 µM | 0.099 µM | 0.019 µM | – | – | – | – | – | –
COC(=O)CCCn1cc(CN2CCC(Nc3nccc(Oc4c(C)cc(/C=C/C#N)cc4C)n3)CC2)nn1 | – | – | 0.008 µM | 16.1 µM | 0.073 µM | 2.36 µM | 90.7% | 1.09 µM | 0.028 µM | 2680 | 0.006 µM | 0.028 µM | 0.83 µM | 0.036 µM | – | – | – | – | – | –
CCOC(=O)Cn1cc(CN2CCC(Nc3nccc(Oc4c(C)cc(/C=C/C#N)cc4C)n3)CC2)nn1 | – | – | – | 18.8 µM | 0.054 µM | – | 90.9% | – | – | 1740 | 0.011 µM | – | – | – | – | – | – | – | – | –
Cc1cc(/C=C/C#N)cc(C)c1Oc1nc(NC2CCN(Cc3cn(CC(=O)NC4CC4)nn3)CC2)nc2sccc12 | – | – | – | 16.9 µM | 0.214 µM | 0.084 µM | – | 0.038 µM | 0.016 µM | 3520 | 0.005 µM | 0.006 µM | 0.156 µM | 0.022 µM | 3 | – | – | – | – | –
Cc1cc(/C=C/C#N)cc(C)c1Oc1nc(NC2CCN(Cc3cn(CC(N)=O)nn3)CC2)nc2sccc12 | – | – | 0.005 µM | 62.5 µM | 0.118 µM | 0.089 µM | – | 0.039 µM | 0.017 µM | 14500 | 0.004 µM | 0.006 µM | 0.051 µM | 0.014 µM | 3 | 20.1 µg/mL (≈ 37 µM) | 22.5 µg/mL (≈ 41.4 µM) | 228 µg/mL (≈ 419 µM) | – | –
Cc1cc(/C=C/C#N)cc(C)c1Oc1nc(NC2CCN(Cc3cn(CC(=O)NC4CCOCC4)nn3)CC2)nc2sccc12 | – | – | 0.005 µM | 16 µM | 0.22 µM | 0.062 µM | – | 0.029 µM | 0.015 µM | 4980 | 0.003 µM | 0.005 µM | 0.047 µM | 0.018 µM | 3 | 23.1 µg/mL (≈ 36.8 µM) | 22.5 µg/mL (≈ 35.8 µM) | 1610 µg/mL (≈ 2570 µM) | – | –
CNC(=O)Cn1cc(CN2CCC(Nc3nc(Oc4c(C)cc(/C=C/C#N)cc4C)c4ccsc4n3)CC2)nn1 | – | – | 0.003 µM | 18.7 µM | 0.134 µM | 0.058 µM | – | 0.03 µM | 0.008 µM | 3990 | 0.005 µM | 0.004 µM | 0.028 µM | 0.009 µM | 3 | 20.1 µg/mL (≈ 36 µM) | 23.6 µg/mL (≈ 42.3 µM) | 733 µg/mL (≈ 1310 µM) | 2 | 2
COC(=O)CCCn1cc(CN2CCC(Nc3nccc(Oc4c(C)cc(C#N)cc4C)n3)CC2)nn1 | – | – | – | 21.3 µM | 0.056 µM | – | 90.7% | – | – | 2060 | 0.01 µM | – | – | – | – | – | – | – | – | –
Cc1cc(/C=C/C#N)cc(C)c1Oc1ccnc(NC2CCN(Cc3cn(CC(=O)NC4CC4)nn3)CC2)n1 | – | – | – | 20.9 µM | 0.04 µM | 0.085 µM | 92.4% | 0.091 µM | 0.007 µM | 14000 | 0.002 µM | 0.009 µM | 0.066 µM | 0.007 µM | – | 85 µg/mL (≈ 161 µM) | 198 µg/mL (≈ 375 µM) | 3190 µg/mL (≈ 6040 µM) | – | –
Cc1cc(/C=C/C#N)cc(C)c1Oc1ccnc(NC2CCN(Cc3cn(CC(=O)N4CCOCC4)nn3)CC2)n1 | – | – | 0.003 µM | 30.5 µM | 0.059 µM | 1.17 µM | 89.4% | 1.26 µM | 0.017 µM | 13300 | 0.002 µM | 0.061 µM | 0.664 µM | 0.01 µM | – | – | – | – | – | –
CCNC(=O)Cn1cc(CN2CCC(Nc3nc(Oc4c(C)cc(/C=C/C#N)cc4C)c4ccsc4n3)CC2)nn1 | – | – | – | 19.1 µM | 0.21 µM | 0.055 µM | – | 0.029 µM | 0.012 µM | 5010 | 0.004 µM | 0.007 µM | 0.036 µM | 0.017 µM | 3 | 22.6 µg/mL (≈ 39.5 µM) | 25.1 µg/mL (≈ 43.9 µM) | 659 µg/mL (≈ 1150 µM) | – | –
